Data from patent US20230312556A1, “ARYLAMIDE COMPOUND, PHARMACEUTICAL COMPOSITION COMPRISING SAME, AND PREPARATION METHOD THEREFOR AND USE THEREOF” (SICHUAN KELUN-BIOTECH BIOPHARMACEUTICAL CO., LTD., priority 2020, published 2023).

molecular target: mutant BRAF enzyme (BRAF-V600E) (Homo sapiens (Human), UniProt P15056, V600E); experiment: RAF inhibition assay (TB-PMAP2K1 kit), BRAF-V600E; type: biochemical; settings: FLUORESCEIN-MAP2K1 substrate, 60 min reaction
Sequence (P15056 whole entry V600E): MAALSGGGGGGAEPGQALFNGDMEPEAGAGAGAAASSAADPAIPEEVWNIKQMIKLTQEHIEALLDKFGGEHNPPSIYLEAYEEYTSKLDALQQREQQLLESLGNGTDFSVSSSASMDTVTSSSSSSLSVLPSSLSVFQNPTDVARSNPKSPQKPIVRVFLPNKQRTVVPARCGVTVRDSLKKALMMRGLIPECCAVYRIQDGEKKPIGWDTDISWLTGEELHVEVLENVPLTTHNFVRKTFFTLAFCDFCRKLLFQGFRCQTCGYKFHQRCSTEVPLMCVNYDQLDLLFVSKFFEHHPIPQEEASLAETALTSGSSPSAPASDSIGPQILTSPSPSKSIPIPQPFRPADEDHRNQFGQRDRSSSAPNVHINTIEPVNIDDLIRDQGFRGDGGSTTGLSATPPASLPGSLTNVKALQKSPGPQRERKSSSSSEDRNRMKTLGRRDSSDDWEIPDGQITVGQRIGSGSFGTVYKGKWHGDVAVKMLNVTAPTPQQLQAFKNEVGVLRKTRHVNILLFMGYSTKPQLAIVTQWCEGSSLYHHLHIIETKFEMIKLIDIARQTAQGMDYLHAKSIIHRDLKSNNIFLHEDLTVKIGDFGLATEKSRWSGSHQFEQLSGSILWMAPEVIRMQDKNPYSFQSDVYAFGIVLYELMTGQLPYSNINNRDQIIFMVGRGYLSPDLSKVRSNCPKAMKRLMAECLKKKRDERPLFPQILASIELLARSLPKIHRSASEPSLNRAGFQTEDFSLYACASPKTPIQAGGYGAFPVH

Row | SMILES | IC50
1 | COc1ccc(Nc2nccc3c(NC(=O)c4cccc5c(N)ncnc45)c(C)ccc23)cc1 [Compound 57, 4-amino-N-(1-((4-methoxyphenyl)amino)-6-methylisoquinolin-5-yl)quinazoline-8-carboxamide] | 2.89 ± 0.34 nM
2 | Cc1ccc2c(Cc3ccccc3F)nccc2c1NC(=O)c1csc2c(N)ncnc12 [Compound 2, 4-amino-N-(1-(2-fluorobenzyl)-6-methylisoquinolin-5-yl)thieno[3,2-d]pyrimidine-7-carboxamide] | 35.6 ± 2.4 nM
3 | CC(=O)c1ccc(Nc2nccc3c(NC(=O)c4cccc5c(N)ncnc45)c(C)ccc23)cc1 [Compound 63, N-(1-((4-acetylphenyl)amino)-6-methylisoquinolin-5-yl)-4-aminoquinazoline-8-carboxamide] | 5.39 ± 0.8 nM
4 | Cc1ccc2c(Nc3ccc(Cl)c(CN(C)C)c3)nccc2c1NC(=O)c1cccc2c(N)ncnc12 [Compound 64, 4-amino-N-(1-((4-chloro-3-((dimethylamino)methyl)phenyl)amino)-6-methylisoquinolin-5-yl)quinazoline-8-carboxamide] | 13 ± 3.58 nM
5 | Cc1ccc2c(Cc3ccc(Cl)cc3F)nccc2c1NC(=O)c1csc2c(N)ncnc12 [Compound 26, 4-amino-N-(1-(4-chloro-2-fluorobenzyl)-6-methylisoquinolin-5-yl)thieno[3,2-d]pyrimidine-7-carboxamide] | 9 ± 0.77 nM
6 | Cc1ccc2c(Nc3ccc4c(c3)CN(C)CC4)nccc2c1NC(=O)c1cccc2c(N)ncnc12 [Compound 82, 4-amino-N-(6-methyl-1-((2-methyl-1,2,3,4-tetrahydroisoquinolin-7-yl)amino)isoquinolin-5-yl)quinazoline-8-carboxamide] | 13.2 ± 1.69 nM
7 | COc1ccc(Nc2nccc3c(NC(=O)c4cccc5c(N)ncnc45)c(C)ccc23)cn1 [Compound 75, 4-amino-N-(1-((6-methoxypyridin-3-yl)amino)-6-methylisoquinolin-5-yl)quinazoline-8-carboxamide] | 5.58 ± 0.77 nM
8 | Cc1cc(C(=O)Nc2c(C)ccc3c(Nc4cccc(Cl)c4F)nccc23)c2ncnc(N)c2c1 [Compound 45, 4-amino-N-(1-((3-chloro-2-fluorophenyl)amino)-6-methylisoquinolin-5-yl)-6-methylquinazoline-8-carboxamide] | 18.2 ± 7.52 nM
9 | Cc1ccc2c(C(O)c3ccc(F)cc3)nccc2c1NC(=O)c1csc2c(N)ncnc12 (centres unmarked) [Compound 15, 4-amino-N-(1-((4-fluorophenyl)(hydroxy)methyl)-6-methylisoquinolin-5-yl)thieno[3,2-d]pyrimidine-7-carboxamide] | 11.1 ± 1.5 nM
10 | Cc1ccc2c(Cc3ccccc3Cl)nccc2c1NC(=O)c1cccc2c(N)ncnc12 [Compound 25, 4-amino-N-(1-(2-chlorobenzyl)-6-methylisoquinolin-5-yl)quinazoline-8-carboxamide] | 6.31 ± 0.99 nM
11 | Cc1ccc2c(Nc3ccc4c(c3)OCCO4)nccc2c1NC(=O)c1cccc2c(N)ncnc12 [Compound 77, 4-amino-N-(1-((2,3-dihydrobenzo[b][1,4]dioxin-6-yl)amino)-6-methylisoquinolin-5-yl)quinazoline-8-carboxamide] | 7.9 ± 0.73 nM
12 | Cc1ccc2c(Nc3cccc(Cl)c3F)nccc2c1NC(=O)c1cc(OCCN2CCOCC2)cc2c(N)ncnc12 [Compound 79, 4-amino-N-(1-((3-chloro-2-fluorophenyl)amino)-6-methylisoquinolin-5-yl)-6-(2-morpholinoethoxy)quinazoline-8-carboxamide] | 14.7 ± 1.66 nM
13 | Cc1ccc2c(Nc3cccc(Cl)c3F)nccc2c1NC(=O)c1cc(N2CCN(C)CC2)cc2c(N)ncnc12 [Compound 54, 4-amino-N-(1-((3-chloro-2-fluorophenyl)amino)-6-methylisoquinolin-5-yl)-6-(4-methylpiperazin-1-yl)quinazoline-8-carboxamide] | 11 ± 2.02 nM
14 | Cc1ccc2c(Cc3cccc(Cl)c3)nccc2c1NC(=O)c1csc2c(N)ncnc12 [Compound 16, 4-amino-N-(1-(3-chlorobenzyl)-6-methylisoquinolin-5-yl)thieno[3,2-d]pyrimidine-7-carboxamide] | 6.27 ± 1.15 nM
15 | Cc1ccc2c(Cc3ccc(Cl)c(CN(C)C)c3)nccc2c1NC(=O)c1csc2c(N)ncnc12 [Compound 42, 4-amino-N-(1-(4-chloro-3-((dimethylamino)methyl)benzyl)-6-methylisoquinolin-5-yl)thieno[3,2-d]pyrimidine-7-carboxamide] | 35.8 ± 9.02 nM
16 | COc1ccc(Nc2nccc3c(NC(=O)c4cnc5c(N)ncnn45)c(C)ccc23)c(F)c1 [Compound 61, 4-amino-N-(1-((2-fluoro-4-methoxyphenyl)amino)-6-methylisoquinolin-5-yl)imidazo[2,1-f][1,2,4]triazine-7-carboxamide] | 2.88 ± 0.74 nM
17 | Cc1ccc2c(C(O)c3ccc(C(F)(F)F)cc3)nccc2c1NC(=O)c1csc2c(N)ncnc12 (centres unmarked) [Compound 33, 4-amino-N-(1-(hydroxy(4-(trifluoromethyl)phenyl)methyl)-6-methylisoquinolin-5-yl)thieno[3,2-d]pyrimidine-7-carboxamide] | 33.5 ± 6.13 nM
18 | Cc1ccc2c(Nc3cccc(Cl)c3F)nccc2c1NC(=O)c1ccnc2c(N)ncnc12 [Compound 81, 4-amino-N-(1-((3-chloro-2-fluorophenyl)amino)-6-methylisoquinolin-5-yl)pyrido[3,2-d]pyrimidine-8-carboxamide] | 22 ± 3.69 nM

Row | SMILES | IC50
19 | Cc1ccc2c(Cc3ccc(Cl)cc3)nccc2c1NC(=O)c1csc2c(N)ncnc12 [Compound 18, 4-amino-N-(1-(4-chlorobenzyl)-6-methylisoquinolin-5-yl)thieno[3,2-d]pyrimidine-7-carboxamide] | 8.33 ± 1.25 nM
20 | Cc1ccc2c(Cc3ccccc3Cl)nccc2c1NC(=O)c1csc2c(N)ncnc12 [Compound 10, 4-amino-N-(1-(2-chlorobenzyl)-6-methylisoquinolin-5-yl)thieno[3,2-d]pyrimidine-7-carboxamide] | 4.73 ± 1.82 nM
21 | Cc1ccc2c(Nc3cc(Br)ccc3F)nccc2c1NC(=O)c1cccc2c(N)ncnc12 [Compound 91, 4-amino-N-(1-((5-bromo-2-fluorophenyl)amino)-6-methylisoquinolin-5-yl)quinazoline-8-carboxamide] | 20.9 ± 2.81 nM
22 | Cc1ccc2c(Nc3cc(C#N)ccc3F)nccc2c1NC(=O)c1cccc2c(N)ncnc12 [Compound 80, 4-amino-N-(1-((5-cyano-2-fluorophenyl)amino)-6-methylisoquinolin-5-yl)quinazoline-8-carboxamide] | 13.5 ± 12.1 nM
23 | Cc1ccc2c(C(=O)c3ccc(Cl)cc3)nccc2c1NC(=O)c1csc2c(N)ncnc12 [Compound 21, 4-amino-N-(1-(4-chlorobenzoyl)-6-methylisoquinolin-5-yl)thieno[3,2-d]pyrimidine-7-carboxamide] | 5.99 ± 1.82 nM
24 | Cc1ccc2c(Nc3cccc(Cl)c3F)nccc2c1NC(=O)c1cc(N2CCOCC2)cc2c(N)ncnc12 [Compound 53, 4-amino-N-(1-((3-chloro-2-fluorophenyl)amino)-6-methylisoquinolin-5-yl)-6-morpholinoquinazoline-8-carboxamide] | 17.3 ± 3.43 nM
25 | Cc1ccc2c(Cc3ccc(F)cc3)nccc2c1NC(=O)c1csc2c(N)ncnc12 [Compound 13, 4-amino-N-(1-(4-fluorobenzyl)-6-methylisoquinolin-5-yl)thieno[3,2-d]pyrimidine-7-carboxamide] | 32.8 ± 0.6 nM
26 | COc1ccc(Cc2nccc3c(NC(=O)c4csc5c(N)ncnc45)c(C)ccc23)cc1 [Compound 5, 4-amino-N-(1-(4-methoxybenzyl)-6-methylisoquinolin-5-yl)thieno[3,2-d]pyrimidine-7-carboxamide] | 8.9 ± 1.03 nM
27 | Cc1ccc2c(C(=O)c3ccccc3Cl)nccc2c1NC(=O)c1csc2c(N)ncnc12 [Compound 11, 4-amino-N-(1-(2-chlorobenzoyl)-6-methylisoquinolin-5-yl)thieno[3,2-d]pyrimidine-7-carboxamide] | 33.1 ± 7.2 nM
28 | COc1ccc(F)c(Nc2nccc3c(NC(=O)c4cccc5c(N)ncnc45)c(C)ccc23)c1 [Compound 87, 4-amino-N-(1-((2-fluoro-5-methoxyphenyl)amino)-6-methylisoquinolin-5-yl)quinazoline-8-carboxamide] | 4.64 ± 0.7 nM
29 | Cc1ccc2c(Nc3cccc(C#N)c3F)nccc2c1NC(=O)c1cccc2c(N)ncnc12 [Compound 83, 4-amino-N-(1-((3-cyano-2-fluorophenyl)amino)-6-methylisoquinolin-5-yl)quinazoline-8-carboxamide] | 15.1 ± 1.62 nM
30 | Cc1ccc2c(C(=O)c3ccc(Cl)cc3F)nccc2c1NC(=O)c1csc2c(N)ncnc12 [Compound 27, 4-amino-N-(1-(4-chloro-2-fluorobenzoyl)-6-methylisoquinolin-5-yl)thieno[3,2-d]pyrimidine-7-carboxamide] | 6.48 ± 0.93 nM
31 | Cc1ccc2c(Nc3ccc(C#N)cc3F)nccc2c1NC(=O)c1cccc2c(N)ncnc12 [Compound 78, 4-amino-N-(1-((4-cyano-2-fluorophenyl)amino)-6-methylisoquinolin-5-yl)quinazoline-8-carboxamide] | 12.4 ± 0.94 nM
32 | Cc1ccc2c(Nc3cccc(Cl)c3F)nccc2c1NC(=O)c1cc(OCCO)cc2c(N)ncnc12 [Compound 86, 4-amino-N-(1-((3-chloro-2-fluorophenyl)amino)-6-methylisoquinolin-5-yl)-6-(2-hydroxyethoxy)quinazoline-8-carboxamide] | 11.9 ± 1.3 nM
33 | Cc1ccc2c(Nc3cccc(Cl)c3F)nccc2c1NC(=O)c1cccc2c(N)nccc12 [Comparative Example 1, 1-amino-N-(1-((3-chloro-2-fluorophenyl)amino)-6-methylisoquinolin-5-yl)isoquinoline-5-carboxamide, reference compound] | > 1000 nM
34 | Cc1ccc2c(Nc3ccc(Cl)c(F)c3F)nccc2c1NC(=O)c1cnc2c(N)ncnn12 [Compound 70, 4-amino-N-(1-((4-chloro-2,3-difluorophenyl)amino)-6-methylisoquinolin-5-yl)imidazo[2,1-f][1,2,4]triazine-7-carboxamide] | 10.5 ± 1.72 nM
35 | Cc1ccc2c(C(O)c3ccccc3Cl)nccc2c1NC(=O)c1cccc2c(N)ncnc12 (centres unmarked) [Compound 24, 4-amino-N-(1-((2-chlorophenyl)(hydroxy)methyl)-6-methylisoquinolin-5-yl)quinazoline-8-carboxamide] | 7.1 ± 0.7 nM
